In patent US9744119B2, “Cosmetic composition and method of preparation” (Momentive Performance Materials Inc., priority 2014, dated 2017):

Test: Differential scanning calorimetry (DSC) of niacinamide and its 2% blends with silicones
Format: physicochemical
Experimental: To further understand the difference in interaction between ionically modified silicone and control/Silsoft silicone gel, differential scanning calorimetry (DSC) studies were carried out on pure active-niacinamide, and its blends with silsoft silicone and ionically modified silicone. 2% Niacinamide blends were prepared by thoroughly mixing Niacinamide with above silicones using spatula followed by high-speed mixing in Flack-Tek for 5 minutes. The free Niacinamide and Niacinamide loaded Silsoft silicone gel and ionically modified silicone were subjected to a heating and cooling cycle under nitrogen atmosphere. The DSC thermograms are show in FIG. 2.

ΔH (heat change associated with the melting of Niacinamide) (nitrogen atmosphere): 218.7 J/g | % Crystallinity (crystalline Niacinamide) (relative to pure niacinamide): 100%
SMILES: NC(=O)c1cccnc1 [Niacinamide, niacinamide]
